Consider 1 compound from patent US10820823B2, “Evaluation of inhibitory circuit and use thereof” (INTER-UNIVERSITY RESEARCH INSTITUTE C[…] INSTITUTES OF …, priority 2015, dated 2020).

For test [1], the system named is GABA-A early inhibition due to basket cells. Conditions: slice specimens; cited from earlier work.
Test [2] relates to inhibitory circuit (GABA-A early inhibition). The experiment in a line: Inhibition rate (prepulse attenuation) of auditory change-related brain activity by magnetoencephalography, before and after drug administration. It counts as in vivo, human. Conditions: for effect of drug on inhibition: 5 mg single oral administration.
Description: In the present embodiment, an action of inhibitory circuits of 13 humans was evaluated using an excitatory circuit for a change response to a sound pressure change in an auditory system. As for the change response, when a sudden slight increase in sound pressure (10 dB) is generated in a background sound in which a short click sound (70 dB) of 1 ms is continuously generated at a frequency of 100 Hz, the human brain reacts thereto with very high sensitivity and a remarkable brain response is triggered.
The evaluation system included a stimulus output unit and a brain activity measurement unit.
Full-head measurement with the cerebral magnetic field measurement unit was performed using a magnetoencephalograph (306 channel magnetoencephalograph (Vector View, Neuromag, Helsinki, Finland)).
Three kinds of stimuli, namely, the test stimulus, the preceding stimulus, and the test+preceding stimulus were sequentially applied to the subject at regular intervals from the stimulus output irnit through an insert earphone from the start of the test, and brain activity induced by the activation of the excitatory circuit at this time was measured as a cerebral magnetic field. […] A predetermined number of trials could be designated in the cerebral magnetic field measurement unit, addition was performed automatically, and an attenuation rate (inhibition rate) was obtained from the amplitude of the addition waveform.
Effect of diazepam (5 mg single oral administration) on inhibition was examined by comparing the inhibition rates before and after the administration of the drug to two subjects of different types by the same recording procedure as in first embodiment. The amplitude of the response was taken between vertices of a component of 50 ms and a component of 100 ms (black triangles).

Consider `CN1C(=O)CN=C(c2ccccc2)c2cc(Cl)ccc21` [diazepam], for which the “effect on GABA-A early inhibition due to basket cells” value in test [1] is on record as “enhances”. In addition, in test [2] (Subject 1 (strong inhibition before administration), diazepam 5 mg single oral administration, 1 hour after administration), the “change of inhibition after the administration” value is “little change”. For the same compound, the results for the “effect of drug on inhibition” value in test [2] (Subject 1) and in test [2] (Subject 2) were “small effect” and “strong effect”, respectively. Besides, the “inhibition rate after the administration” value in test [2] (Subject 2 (weak early inhibition before administration), diazepam 5 mg single oral administration, 1 hour after administration) is recorded as 45%.
